Where two headings read alike, the source gives them in different places.
Columns and labels:
JAK1 = target: T1, JAK1 (Homo sapiens, UniProt P23458); assay: Enzymatic Caliper Mobility Shift Assay, ATP at Km; format: biochemical
T1 construct: ChemPartner (contract assay service)
Text: (§1) The assay protocol guides are commercially available from ChemPartner.

JAK2 = target: T2, JAK2 (Homo sapiens, UniProt O60674); assay: Enzymatic Caliper Mobility Shift Assay, ATP at Km; format: biochemical
T2 construct: ChemPartner (contract assay service)
Text: as §1

JAK3 [1] = target: T3, JAK3 (Homo sapiens, UniProt P52333); assay: Enzymatic Caliper Mobility Shift Assay, ATP at Km; format: biochemical
T3 construct: ChemPartner (contract assay service)
T3 sequence (P52333 1-1124): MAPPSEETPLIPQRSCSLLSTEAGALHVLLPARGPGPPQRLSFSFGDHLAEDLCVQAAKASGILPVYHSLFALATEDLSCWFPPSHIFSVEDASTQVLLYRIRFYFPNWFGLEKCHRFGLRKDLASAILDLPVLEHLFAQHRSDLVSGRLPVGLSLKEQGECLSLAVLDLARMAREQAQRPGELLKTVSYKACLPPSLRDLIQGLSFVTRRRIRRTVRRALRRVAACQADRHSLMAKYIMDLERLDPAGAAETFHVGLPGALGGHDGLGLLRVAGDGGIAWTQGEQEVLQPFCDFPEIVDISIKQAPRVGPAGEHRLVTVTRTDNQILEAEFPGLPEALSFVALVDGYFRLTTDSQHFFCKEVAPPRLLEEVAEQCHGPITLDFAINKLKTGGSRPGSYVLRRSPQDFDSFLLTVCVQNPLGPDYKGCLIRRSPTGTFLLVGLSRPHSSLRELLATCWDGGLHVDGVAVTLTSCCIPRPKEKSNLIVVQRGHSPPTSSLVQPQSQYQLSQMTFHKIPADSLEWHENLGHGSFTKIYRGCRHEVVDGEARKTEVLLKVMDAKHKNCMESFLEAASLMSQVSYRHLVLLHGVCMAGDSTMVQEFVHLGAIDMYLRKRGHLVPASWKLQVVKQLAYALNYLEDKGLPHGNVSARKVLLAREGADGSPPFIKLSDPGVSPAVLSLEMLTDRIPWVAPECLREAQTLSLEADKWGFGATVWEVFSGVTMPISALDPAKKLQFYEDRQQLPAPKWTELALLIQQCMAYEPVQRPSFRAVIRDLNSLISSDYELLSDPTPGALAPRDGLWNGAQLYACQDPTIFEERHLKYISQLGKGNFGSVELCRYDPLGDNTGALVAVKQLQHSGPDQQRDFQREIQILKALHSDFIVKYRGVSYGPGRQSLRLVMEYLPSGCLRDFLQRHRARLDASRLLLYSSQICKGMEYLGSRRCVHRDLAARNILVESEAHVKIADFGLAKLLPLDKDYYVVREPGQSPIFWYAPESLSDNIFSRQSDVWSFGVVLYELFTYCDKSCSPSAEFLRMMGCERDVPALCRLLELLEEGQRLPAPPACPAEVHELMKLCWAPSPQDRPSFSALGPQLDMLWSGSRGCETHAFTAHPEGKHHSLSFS
Text: as §1

TYK2 = TYK2 (Homo sapiens, UniProt P29597); assay: Enzymatic Caliper Mobility Shift Assay, ATP at Km; format: biochemical
Text: as §1

BMX = target: T4, BMX (Homo sapiens, UniProt P51813); assay: Cys-containing kinase family panel (EurofinsCerep); format: biochemical
T4 construct: EurofinsCerep (contract assay service)

BLK = target: T5, BLK (Homo sapiens, UniProt P51451); assay: Cys-containing kinase family panel (EurofinsCerep); format: biochemical
T5 construct: EurofinsCerep (contract assay service)

Abl = target: T6, Abl (Homo sapiens, UniProt P00519); assay: Eurofins Kinase Profiler panel; format: biochemical; conditions: read-out: % inhibition (1μM), DMSO control=100%, lower=stronger
T6 construct: purchased Eurofins KinaseProfiler (Eurofins Pharma Discovery Services UK, Dundee); JAK3 also ChemPartner

ACK1 = target: T7, ACK1 (Homo sapiens, UniProt Q07912); assay: Eurofins Kinase Profiler panel; format: biochemical; conditions: read-out: % inhibition (1μM), DMSO control=100%, lower=stronger
T7 construct: purchased Eurofins KinaseProfiler (Eurofins Pharma Discovery Services UK, Dundee); JAK3 also ChemPartner

IKKα = target: T8, IKKα (Homo sapiens, UniProt O15111); assay: Eurofins Kinase Profiler panel; format: biochemical; conditions: read-out: % inhibition (1μM), DMSO control=100%, lower=stronger
T8 construct: purchased Eurofins KinaseProfiler (Eurofins Pharma Discovery Services UK, Dundee); JAK3 also ChemPartner

Aurora-B = target: T9, Aurora-B (Homo sapiens, UniProt Q96GD4); assay: Eurofins Kinase Profiler panel; format: biochemical
T9 construct: Eurofins Pharma Discovery Services UK Limited (Kinase Profiler service)

B-Raf = target: T10, B-Raf (Homo sapiens, UniProt P15056); assay: Eurofins Kinase Profiler panel; format: biochemical; conditions: read-out: % inhibition (1μM), DMSO control=100%, lower=stronger
T10 construct: purchased Eurofins KinaseProfiler (Eurofins Pharma Discovery Services UK, Dundee); JAK3 also ChemPartner

JAK3 [2] = target: T3, JAK3; assay: Eurofins Kinase Profiler panel; format: biochemical; conditions: read-out: % inhibition (1μM), DMSO control=100%, lower=stronger, text: residual kinase activity
MKK6 = target: T11, MKK6 (Homo sapiens, UniProt P52564); assay: Eurofins Kinase Profiler panel; format: biochemical; conditions: read-out: % inhibition (1μM), DMSO control=100%, lower=stronger
T11 construct: Eurofins Pharma Discovery Services UK Limited (Kinase Profiler service)

Fyn = target: T12, Fyn (Homo sapiens, UniProt P06241); assay: Eurofins Kinase Profiler panel; format: biochemical; conditions: read-out: % inhibition (1μM), DMSO control=100%, lower=stronger
T12 construct: purchased Eurofins Pharma Discovery Services UK Limited (Kinase Profiler screening platform)

[3] = tested on: IL-6-induced STAT3 phosphorylation (JAK1); assay: IL-6-induced pSTAT3 in total lymphocytes in hPBMCs, flow cytometry; format: cell-based, human
[4] = tested on: panel of 81 representative kinases; conditions: 1 μM
[5] = tested on: IL-4-induced JAK/STAT6 phosphorylation in THP-1 cells (JAK1/JAK3); assay: STAT6 phosphorylation induced by IL-4 in THP-1 cells, Western blot; conditions: for IC50: Homo sapiens
[6] = tested on: IFN-γ-induced JAK/STAT1 phosphorylation in U2OS cells (JAK1/JAK2); assay: STAT1 phosphorylation induced by IFN-γ in U2OS cells, Western blot; conditions: for IC50: Homo sapiens
[7] = tested on: IFN-α2b-induced JAK/STAT1 phosphorylation in U2OS cells (JAK1); assay: STAT1 phosphorylation induced by IFN-α2b in U2OS cells, Western blot

T9 sequence (Q96GD4 whole entry): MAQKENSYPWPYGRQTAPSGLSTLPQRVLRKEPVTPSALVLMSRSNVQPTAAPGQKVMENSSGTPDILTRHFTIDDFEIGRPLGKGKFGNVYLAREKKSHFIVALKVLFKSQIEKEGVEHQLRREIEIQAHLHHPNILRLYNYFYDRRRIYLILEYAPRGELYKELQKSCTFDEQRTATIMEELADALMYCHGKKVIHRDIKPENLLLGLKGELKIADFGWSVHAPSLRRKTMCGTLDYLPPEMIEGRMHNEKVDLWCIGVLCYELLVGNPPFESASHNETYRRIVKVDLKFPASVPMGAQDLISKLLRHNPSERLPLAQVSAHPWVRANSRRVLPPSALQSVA
T2 sequence (O60674 whole entry): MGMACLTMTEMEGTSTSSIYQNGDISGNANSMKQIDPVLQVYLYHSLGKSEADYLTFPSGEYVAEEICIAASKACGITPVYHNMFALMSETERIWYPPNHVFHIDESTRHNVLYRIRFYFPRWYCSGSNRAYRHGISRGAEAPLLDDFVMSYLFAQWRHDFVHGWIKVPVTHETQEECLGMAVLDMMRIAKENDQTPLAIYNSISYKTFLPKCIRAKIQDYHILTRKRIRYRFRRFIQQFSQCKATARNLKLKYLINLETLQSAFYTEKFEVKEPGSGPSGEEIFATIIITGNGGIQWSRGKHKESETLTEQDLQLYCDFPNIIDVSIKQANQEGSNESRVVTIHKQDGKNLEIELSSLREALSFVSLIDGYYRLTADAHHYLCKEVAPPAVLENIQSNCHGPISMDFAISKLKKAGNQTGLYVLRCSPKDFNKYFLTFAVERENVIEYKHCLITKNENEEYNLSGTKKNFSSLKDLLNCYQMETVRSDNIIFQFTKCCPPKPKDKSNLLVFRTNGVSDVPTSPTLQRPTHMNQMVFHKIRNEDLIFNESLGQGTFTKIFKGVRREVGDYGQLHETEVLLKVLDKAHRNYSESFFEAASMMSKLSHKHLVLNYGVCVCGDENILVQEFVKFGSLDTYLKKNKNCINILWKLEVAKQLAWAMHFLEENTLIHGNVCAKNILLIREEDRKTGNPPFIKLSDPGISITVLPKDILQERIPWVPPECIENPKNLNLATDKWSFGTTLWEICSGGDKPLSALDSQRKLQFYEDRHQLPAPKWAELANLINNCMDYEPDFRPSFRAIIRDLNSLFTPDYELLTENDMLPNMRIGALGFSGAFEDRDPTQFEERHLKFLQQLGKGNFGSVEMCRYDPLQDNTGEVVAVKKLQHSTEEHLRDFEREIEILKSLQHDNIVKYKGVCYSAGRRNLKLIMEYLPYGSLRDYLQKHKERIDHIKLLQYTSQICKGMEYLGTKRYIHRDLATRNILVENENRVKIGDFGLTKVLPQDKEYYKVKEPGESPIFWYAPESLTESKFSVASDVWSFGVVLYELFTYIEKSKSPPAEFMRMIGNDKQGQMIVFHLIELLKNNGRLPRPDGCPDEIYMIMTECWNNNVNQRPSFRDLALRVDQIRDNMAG
T1 sequence (P23458 whole entry): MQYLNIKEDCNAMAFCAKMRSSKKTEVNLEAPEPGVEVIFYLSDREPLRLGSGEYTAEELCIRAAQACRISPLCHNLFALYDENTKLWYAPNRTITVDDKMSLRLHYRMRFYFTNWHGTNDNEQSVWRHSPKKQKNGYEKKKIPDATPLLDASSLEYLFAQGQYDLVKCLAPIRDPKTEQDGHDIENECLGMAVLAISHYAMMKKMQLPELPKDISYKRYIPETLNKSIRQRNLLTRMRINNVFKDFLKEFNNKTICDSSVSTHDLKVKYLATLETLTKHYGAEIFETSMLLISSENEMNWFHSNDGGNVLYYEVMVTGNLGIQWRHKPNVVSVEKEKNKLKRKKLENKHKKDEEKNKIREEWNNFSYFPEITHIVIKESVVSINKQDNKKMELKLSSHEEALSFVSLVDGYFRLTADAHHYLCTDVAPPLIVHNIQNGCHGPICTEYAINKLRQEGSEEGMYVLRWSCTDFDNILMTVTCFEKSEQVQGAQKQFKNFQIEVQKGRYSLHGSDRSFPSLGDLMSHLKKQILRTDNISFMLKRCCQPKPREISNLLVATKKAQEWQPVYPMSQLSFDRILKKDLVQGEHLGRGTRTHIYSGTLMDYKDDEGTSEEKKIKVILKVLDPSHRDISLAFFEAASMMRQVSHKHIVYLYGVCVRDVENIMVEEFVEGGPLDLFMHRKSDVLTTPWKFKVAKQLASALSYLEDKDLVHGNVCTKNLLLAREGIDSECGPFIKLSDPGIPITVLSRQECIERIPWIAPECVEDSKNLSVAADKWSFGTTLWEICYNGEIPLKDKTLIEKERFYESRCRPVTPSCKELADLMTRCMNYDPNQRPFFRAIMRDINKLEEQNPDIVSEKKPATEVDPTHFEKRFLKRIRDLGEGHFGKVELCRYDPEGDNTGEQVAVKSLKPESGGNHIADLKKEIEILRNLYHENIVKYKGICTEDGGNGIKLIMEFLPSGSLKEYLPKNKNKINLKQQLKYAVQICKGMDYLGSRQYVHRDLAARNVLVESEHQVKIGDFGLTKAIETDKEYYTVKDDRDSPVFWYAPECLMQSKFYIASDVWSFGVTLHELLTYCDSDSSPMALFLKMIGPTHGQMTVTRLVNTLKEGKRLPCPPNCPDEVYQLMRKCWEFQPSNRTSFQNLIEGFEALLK
TYK2, sequence (P29597 whole entry): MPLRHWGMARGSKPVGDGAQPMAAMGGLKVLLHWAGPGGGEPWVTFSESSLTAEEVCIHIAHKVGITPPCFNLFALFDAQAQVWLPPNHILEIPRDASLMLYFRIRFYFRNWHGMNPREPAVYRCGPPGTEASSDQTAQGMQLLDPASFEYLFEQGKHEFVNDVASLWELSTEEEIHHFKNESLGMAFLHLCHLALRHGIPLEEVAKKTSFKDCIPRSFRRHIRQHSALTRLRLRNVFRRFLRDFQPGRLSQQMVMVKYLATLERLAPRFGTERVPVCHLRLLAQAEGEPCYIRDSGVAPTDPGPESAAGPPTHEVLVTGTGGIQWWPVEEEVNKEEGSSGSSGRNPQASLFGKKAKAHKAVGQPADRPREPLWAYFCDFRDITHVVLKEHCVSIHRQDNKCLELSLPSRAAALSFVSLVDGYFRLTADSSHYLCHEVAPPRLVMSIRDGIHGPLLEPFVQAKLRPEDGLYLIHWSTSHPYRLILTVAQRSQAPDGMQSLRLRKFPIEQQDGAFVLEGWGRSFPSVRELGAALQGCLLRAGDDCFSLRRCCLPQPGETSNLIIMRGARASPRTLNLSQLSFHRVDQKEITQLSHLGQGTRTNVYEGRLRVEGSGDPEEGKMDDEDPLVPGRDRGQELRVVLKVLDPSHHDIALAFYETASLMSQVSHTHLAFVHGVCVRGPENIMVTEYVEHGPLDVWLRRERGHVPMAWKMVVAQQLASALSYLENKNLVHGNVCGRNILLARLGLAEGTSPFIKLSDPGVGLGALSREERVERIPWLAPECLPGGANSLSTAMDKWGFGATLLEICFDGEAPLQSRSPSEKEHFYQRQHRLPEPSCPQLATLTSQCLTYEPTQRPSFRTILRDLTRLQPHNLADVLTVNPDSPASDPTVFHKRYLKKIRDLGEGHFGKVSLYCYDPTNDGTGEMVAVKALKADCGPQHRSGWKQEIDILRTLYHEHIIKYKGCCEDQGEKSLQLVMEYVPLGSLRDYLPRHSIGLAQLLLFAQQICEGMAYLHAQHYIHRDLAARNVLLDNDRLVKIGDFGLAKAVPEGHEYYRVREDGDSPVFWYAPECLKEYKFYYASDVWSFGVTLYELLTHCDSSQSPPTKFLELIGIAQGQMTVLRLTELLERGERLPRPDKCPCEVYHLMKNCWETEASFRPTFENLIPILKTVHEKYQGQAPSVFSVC
T6 sequence (P00519 whole entry): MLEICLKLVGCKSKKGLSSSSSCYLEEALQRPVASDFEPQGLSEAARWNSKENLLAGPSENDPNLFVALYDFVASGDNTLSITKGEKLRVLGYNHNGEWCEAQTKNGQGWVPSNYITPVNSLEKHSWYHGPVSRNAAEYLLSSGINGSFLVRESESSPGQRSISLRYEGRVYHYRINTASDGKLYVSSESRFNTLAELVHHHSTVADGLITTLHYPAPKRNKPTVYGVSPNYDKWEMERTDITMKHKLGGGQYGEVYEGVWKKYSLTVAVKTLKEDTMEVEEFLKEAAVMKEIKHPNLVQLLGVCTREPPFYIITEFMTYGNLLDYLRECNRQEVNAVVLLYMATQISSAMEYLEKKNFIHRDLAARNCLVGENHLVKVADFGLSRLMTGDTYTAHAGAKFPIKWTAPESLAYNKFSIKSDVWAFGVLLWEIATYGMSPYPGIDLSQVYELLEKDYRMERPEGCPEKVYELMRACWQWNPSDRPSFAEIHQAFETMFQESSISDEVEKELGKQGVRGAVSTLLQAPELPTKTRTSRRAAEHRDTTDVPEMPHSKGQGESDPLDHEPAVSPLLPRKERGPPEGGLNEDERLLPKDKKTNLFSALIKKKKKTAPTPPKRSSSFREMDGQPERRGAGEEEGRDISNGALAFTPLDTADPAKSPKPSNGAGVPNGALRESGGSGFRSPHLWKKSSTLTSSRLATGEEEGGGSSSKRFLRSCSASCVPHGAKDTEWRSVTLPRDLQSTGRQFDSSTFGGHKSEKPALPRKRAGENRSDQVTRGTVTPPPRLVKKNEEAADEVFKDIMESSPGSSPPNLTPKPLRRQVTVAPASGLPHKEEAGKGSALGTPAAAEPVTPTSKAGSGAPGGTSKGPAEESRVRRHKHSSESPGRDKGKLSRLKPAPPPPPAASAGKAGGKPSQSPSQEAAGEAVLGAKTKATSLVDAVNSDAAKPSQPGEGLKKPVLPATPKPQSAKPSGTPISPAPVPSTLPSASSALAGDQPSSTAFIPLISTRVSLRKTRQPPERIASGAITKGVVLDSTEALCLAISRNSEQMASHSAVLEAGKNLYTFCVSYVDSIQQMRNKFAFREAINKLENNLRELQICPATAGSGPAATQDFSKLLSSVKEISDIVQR

In the case of C=CC(=O)N[C@@H]1CCCN(c2ncnc3[nH]ccc23)C1 [RB1], the IC50 (JAK1) is reported as > 5 µM, the “inhibition of JAK1” value (JAK1; at concentrations up to 5 µM) is reported as “did not inhibit” and the IC50 (JAK2) is reported as > 5 µM. The “inhibition of JAK2” value (JAK2; at concentrations up to 5 µM) was “did not inhibit”, the IC50 (JAK3 [1]) was 0.04 µM and the “preference for JAK3 above JAK2, JAK1 and TYK2” value (JAK3 [1]; kinase assay) was “over 100 fold”. The IC50 (TYK2; TYK2, ATP 16.0 μM (Km)) was > 5 µM, the “inhibition of TYK2” value (TYK2; at concentrations up to 5 µM) was “did not inhibit” and the inhibition at 1 µM (BMX) was 4%. It also gave an inhibition at 1 µM (BLK) of 8.35%, an activity at 1 µM (Abl) of 112% and an activity at 1 µM (ACK1) of 34%. The activity at 1 µM (IKKα) was 97%, the IC50 (Aurora-B; estimated) was > 0.8 µM and the activity at 1 µM (Aurora-B; read-out: % inhibition (1μM), 1 µM, DMSO control=100%, lower=stronger) was 12%. It also gave an activity at 1 µM (B-Raf) of 90%, an activity at 1 µM (JAK3 [2]) of 0.9% and an activity at 1 µM (MKK6) of 69%. The activity at 1 µM (Fyn) was 97%, the IC50 ([3]; Homo sapiens, Lymphocyte, hPBMC total lymphocytes, trigger IL-6, readout pSTAT3, JAK1) was > 40 µM and the “Selectivity JAK1/JAK3” value ([3]; hPBMC, IL-6 pSTAT3 over IL-2 pSTAT5) was >400 fold. The “selectivity score S(1)” value ([4]; kinases with ctrl% < 1% / kinases tested) was 0.012, the “selectivity score S(10)” value ([4]; kinases with ctrl% < 10% / kinases tested) was 0.012 and the “selectivity score S(35)” value ([4]; kinases with ctrl% < 35% / kinases tested) was 0.086. The IC50 ([5]; THP-1, read-out: IC50 (nM) JAK1) was > 50000 nM, the IC50 ([5]; THP-1, read-out: IC50 (nM) JAK3) was 53.1 nM and the “inhibition of JAK3 phosphorylation compared with JAK1/JAK2-mediated STATs phosphorylation” value ([5]; IL-4 cell-based assay in THP-1 cells) was “over 1000 folds”. The “Selectivity JAK1/JAK3” value ([5]; THP-1, IL-4, pSTAT6) was > 1000, the “selectivity for JAK3 activity over JAK1 or JAK2” value ([5]; battery of cytokine-stimulated cell-based assays) was > 100 fold and the IC50 ([6]; U2OS, read-out: IC50 (nM) JAK1) was > 50000 nM. For the same compound, the IC50 ([6]; U2OS, read-out: IC50 (nM) JAK2) was > 50000 nM, the “IFN-γ-induced phosphorylation of STAT1” value ([6]; U2OS cells, RB1 at concentrations over 50 μM) was “not affected” and the “Selectivity JAK1/JAK3” value ([6]; U2OS, IFN-γ, pSTAT1) was > 1000. The “Selectivity JAK2/JAK3” value ([6]; U2OS, IFN-γ, pSTAT1) was > 1000, the IC50 ([7]; Homo sapiens, read-out: IC50, STAT and JAK phosphorylation) was > 50 µM and the “Selectivity JAK1/JAK3” value ([7]; IFN-α2B, pSTAT1) was > 1000.

Source: PMC5869712 (Scientific Reports, 2018)
